Data taken from ChEMBL document CHEMBL2074571, “The mouse Bcrp1/Mxr/Abcp gene: amplification and overexpression in cell lines selected for resistance to topotecan, mitoxantrone, or doxorubicin” (Cancer Res, 1999).

Experiments:
Format in all cases: functional, cell-based
[1] = target: T1, Broad substrate specificity ATP-binding cassette transporter ABCG2 (Mus musculus, UniProt Q7TMS5); experiment: TP_TRANSPORTER: increase in mitoxantrone intracellular accumulation (Mitoxantrone: 20 uM, GF120918: 2 uM) in MEF3.8, M32 and T6400 cells; conditions: mef3.8;m32;t6400, 2 µM
T1 sequence (Q7TMS5 whole entry): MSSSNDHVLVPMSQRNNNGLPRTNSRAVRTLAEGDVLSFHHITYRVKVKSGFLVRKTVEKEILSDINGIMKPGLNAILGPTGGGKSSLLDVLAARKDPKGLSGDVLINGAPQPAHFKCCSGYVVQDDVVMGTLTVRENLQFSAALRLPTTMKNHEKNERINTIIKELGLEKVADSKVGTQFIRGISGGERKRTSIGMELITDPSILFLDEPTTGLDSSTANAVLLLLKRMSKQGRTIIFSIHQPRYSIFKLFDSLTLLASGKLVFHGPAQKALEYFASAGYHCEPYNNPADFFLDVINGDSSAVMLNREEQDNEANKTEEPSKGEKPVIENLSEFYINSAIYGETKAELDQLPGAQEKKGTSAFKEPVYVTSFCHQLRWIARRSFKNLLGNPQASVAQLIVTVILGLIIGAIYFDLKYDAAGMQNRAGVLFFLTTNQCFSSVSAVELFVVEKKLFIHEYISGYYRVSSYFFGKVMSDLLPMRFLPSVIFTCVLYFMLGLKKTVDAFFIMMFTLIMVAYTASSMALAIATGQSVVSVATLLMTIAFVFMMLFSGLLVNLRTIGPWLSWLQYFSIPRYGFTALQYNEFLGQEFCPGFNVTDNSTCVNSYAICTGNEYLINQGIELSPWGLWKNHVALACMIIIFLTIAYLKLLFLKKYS

[2] = target: T1, Broad substrate specificity ATP-binding cassette transporter ABCG2; experiment: TP_TRANSPORTER: increase in mitoxantrone intracellular accumulation (Mitoxantrone: 20 uM, GF120918: 2 uM) in KOT52 and D320 cells; conditions: kot52;d320, 2 µM
[3] = target: T1, Broad substrate specificity ATP-binding cassette transporter ABCG2; experiment: TP_TRANSPORTER: cell accumulation in MEF3.8, M32 and T6400 cells; conditions: mef3.8;m32;t6400
[4] = target: T1, Broad substrate specificity ATP-binding cassette transporter ABCG2; experiment: TP_TRANSPORTER: cell accumulation in KOT52 and D320 cells

Row | SMILES | Activity [1] | Activity [2] | Activity [3] | Activity [4]
1 | COc1cc2c(cc1OC)CN(CCc1ccc(NC(=O)c3cccc4c(=O)c5cccc(OC)c5[nH]c34)cc1)CC2.Cl [ELACRIDAR HYDROCHLORIDE] | inhibitor [+] | inhibitor [+] |  | 
2 | O=C1c2c(O)ccc(O)c2C(=O)c2c(NCCNCCO)ccc(NCCNCCO)c21 [MITOXANTRONE] |  |  | substrate [+] | substrate [+]
